The text below walks through data of patent publication US20240315994A1, “SMALL MOLECULE MODULATORS OF FERROPTOSIS” (ARPEGGIO BIOSCIENCES, INC., priority 2021, published 2024).

SMILES strings stand for the structures.

The test system of the test is HT1080 cells (ATCC, cat #CCL-121). The test can be described thus: HT1080 CellTiter-Glo 2.0 IC50 assay of working examples. Type of test: cell-based. The following applies: HT-1080, 24 hrs, cells plated with and without 1.5 μM ferrostatin-1, table does not say which, Table 7. The method, then: Biological evaluation of working examples A1-A47 and B1-B28 was performed in HT1080 cells (ATCC, cat #CCL-121) according to the procedure provided below.
• 1.1 Cells were harvested from flask into cell culture medium and then the cell number count was determined. • 1.2 The cells were suspended with 1.5 μM ferrostatin-1 and without ferrostatin-1. • 1.3 Cells were plated at a density of 1,500 cells per well in a 384-well black sided clear bottom plate, in 25 μL, using electronic multichannel pipette. • 1.4 Plates were covered with lid and spun for 1 min at 1000 rpm, then allowed to incubate overnight at 37° C. under 5% CO2.
• 2.1 Compounds were dissolved at 10 mM stock solution and 10 μl of diluted solution was transferred to a 384 LDV-plate (LABCYTE, LP-0200). A 3 fold, 11-point dilution was performed. • 2.2 Cells were treated with compounds by plate reformat Echo software and spun for 1 min at 1000 rpm. Then incubated at 37° C. for 24 hrs in a CO2 incubator.
• 3.1 The plates were removed from the incubator and allowed to equilibrate to room temperature, at least 30 minutes. • 3.2 CellTiter-Glo® 2.0 Reagent (Promega, G9242) was added (25 μL) to the assay plates and spun for 1 min at 1000 rpm. Then allowed to stand for about 20 minutes before reading luminescence signal on Envision. • 3.3 The IC50 calculations were determined with a nonlinear fit, variable slope (four parameters) log(inhibitor) vs. response model using GraphPad PRISM.
Background: In ATP-based viability assays light output follows the ATP content of the culture.
`Cc1cc(C)cc(N(Cc2ccc(F)cc2)C(=O)CCl)c1` [Compound A1, 2-chloro-N-(3,5-dimethylphenyl)-N-[(4-fluorophenyl)methyl]acetamide]: the IC50 (in general, the concentration needed to halve the response being measured) lay within 100 to 1000 nM. The same measure for `COc1ccc(CN(C(=O)CCl)c2cc(C)cc(C)c2)cc1` [Compound A2, 2-chloro-N-(3,5-dimethylphenyl)-N-[(4-methoxyphenyl)methyl]acetamide]: 10 to 100 nM. The same measure for `COc1cc(OC)cc(N(Cc2ccc(F)cc2)C(=O)CCl)c1` [Compound A3, 2-chloro-N-(3,5-dimethoxyphenyl)-N-[(4-fluorophenyl)methyl]acetamide]: 10 to 100 nM; for `Cc1cc(C)cc(N(Cc2ccc(Cl)cc2)C(=O)CCl)c1` [Compound A4, 2-chloro-N-[(4-chlorophenyl)methyl]-N-(3,5-dimethylphenyl)acetamide]: 100 to 1000 nM. In turn, `COc1cccc(CN(C(=O)CCl)c2cc(C)cc(C)c2)c1` [Compound A5, 2-chloro-N-(3,5-dimethylphenyl)-N-[(3-methoxyphenyl)methyl]acetamide] came in with an IC50 of 10 to 100 nM. With `Cc1cc(C)cc(N(Cc2ccccc2Cl)C(=O)CCl)c1` [Compound A6, 2-chloro-N-[(2-chlorophenyl)methyl]-N-(3,5-dimethylphenyl)acetamide], the 50% inhibitory concentration (IC50) fell in the range of 100 to 1000 nM. The same measure for `COc1ccccc1CN(C(=O)CCl)c1cc(C)cc(C)c1` [Compound A7, 2-chloro-N-(3,5-dimethylphenyl)-N-[(2-methoxyphenyl)methyl]acetamide]: 10 to 100 nM; for `Cc1cccc(CN(C(=O)CCl)c2cc(C)cc(C)c2)c1` [Compound A8, 2-chloro-N-(3,5-dimethylphenyl)-N-(m-tolylmethyl)acetamide]: 10 to 100 nM; for `Cc1cc(C)cc(N(Cc2cccc(Cl)c2)C(=O)CCl)c1` [Compound A9, 2-chloro-N-[(3-chlorophenyl)methyl]-N-(3,5-dimethylphenyl)acetamide]: 10 to 100 nM.

`Cc1ccc(CN(C(=O)CCl)c2cc(C)cc(C)c2)cc1` [Compound A10, 2-chloro-N-(3,5-dimethylphenyl)-N-(p-tolylmethyl)acetamide] yielded an IC50 of 100 to 1000 nM.

Consider `Cc1cc(C)cc(N(Cc2ccccc2C)C(=O)CCl)c1` [Compound A11, 2-chloro-N-(3,5-dimethylphenyl)-N-(o-tolylmethyl)acetamide], for which the IC50 fell in the range of 100 to 1000 nM.

As to `O=C(CCl)N(Cc1ccc(F)cc1)C1CCCCC1` [Compound A12, 2-chloro-N-cyclohexyl-N-[(4-fluorophenyl)methyl]acetamide], the IC50 was in the range of 100 to 1000 nM. `COc1cccc(N(Cc2ccc(F)cc2)C(=O)CCl)c1` [Compound A13, 2-chloro-N-[(4-fluorophenyl)methyl]-N-(3-methoxyphenyl)acetamide]: the IC50 was 100 to 1000 nM.

As for `COc1cc(Cl)cc(N(Cc2ccc(F)cc2)C(=O)CCl)c1` [Compound A14, 2-chloro-N-(3-chloro-5-methoxy-phenyl)-N-[(4-fluorophenyl)methyl]acetamide], the IC50 lay in the range of 100 to 1000 nM. On to `O=C(CCl)N(Cc1ccc(F)cc1)c1cc(F)cc(F)c1` [Compound A15, 2-chloro-N-(3,5-difluorophenyl)-N-[(4-fluorophenyl)methyl]acetamide], for which the half-maximal inhibitory concentration (IC50) was 1000 to 10000 nM. As to `O=C(CCl)N(Cc1ccc(F)cc1)c1cc(Cl)cc(Cl)c1` [Compound A16, 2-chloro-N-(3,5-dichlorophenyl)-N-[(4-fluorophenyl)methyl]acetamide], the 50% inhibitory concentration (IC50) fell in the range of 100 to 1000 nM. On to `COc1ccc(N(Cc2ccc(F)cc2)C(=O)CCl)cc1Cl` [Compound A17, 2-chloro-N-(3-chloro-4-methoxy-phenyl)-N-[(4-fluorophenyl)methyl]acetamide], for which the IC50 was 100 to 1000 nM.

For the compound `O=C(CCl)N(Cc1ccc(F)cc1)c1cccc(Cl)c1` [Compound A18, 2-chloro-N-(3-chlorophenyl)-N-[(4-fluorophenyl)methyl]acetamide], the concentration for half-maximal inhibition (IC50) fell in the range of 100 to 1000 nM.

Compound `COc1cc(OC)cc(N(Cc2ccc(C#N)cc2)C(=O)CCl)c1` [Compound A19, 2-chloro-N-[(4-cyanophenyl)methyl]-N-(3,5-dimethoxyphenyl)acetamide] returned a concentration for half-maximal inhibition (IC50) of 10 to 100 nM. `COc1cc(OC)cc(N(Cc2cccc(F)c2F)C(=O)CCl)c1` [Compound A20, 2-chloro-N-[(2,3-difluorophenyl)methyl]-N-(3,5-dimethoxyphenyl)acetamide]: the half-maximal inhibitory concentration (IC50) fell in the range of 10 to 100 nM.

`COc1ccc(CN(C(=O)CCl)c2cc(OC)cc(OC)c2)cc1` [Compound A21, 2-chloro-N-(3,5-dimethoxyphenyl)-N-[(4-methoxyphenyl)methyl]acetamide] yielded an IC50 of 10 to 100 nM.

`O=C(CCl)N(Cc1ccc(F)cc1)c1ccc2ncccc2c1` [Compound A22, 2-chloro-N-[(4-fluorophenyl)methyl]-N-(6-quinolyl)acetamide] showed an IC50 of 100 to 1000 nM.

Consider `COc1cc(OC)cc(N(Cc2ccc(F)cc2Br)C(=O)CCl)c1` [Compound A23, N-[(2-bromo-4-fluoro-phenyl)methyl]-2-chloro-N-(3,5-dimethoxyphenyl)acetamide], for which the IC50 fell in the range of 10 to 100 nM. `COc1cc(OC)cc(N(Cc2ccc(O)cc2)C(=O)CCl)c1` [Compound A24, 2-chloro-N-(3,5-dimethoxyphenyl)-N-[(4-hydroxyphenyl)methyl]acetamide] registered an IC50 of 100 to 1000 nM. The same measure for `COc1cc(C)cc(N(Cc2ccc(F)cc2)C(=O)CCl)c1` [Compound A25, 2-chloro-N-[(4-fluorophenyl)methyl]-N-(3-methoxy-5-methyl-phenyl)acetamide]: 100 to 1000 nM; for `COc1cc(OC)cc(N(Cc2c(Cl)cc(F)cc2Cl)C(=O)CCl)c1` [Compound A26, 2-chloro-N-[(2,6-dichloro-4-fluoro-phenyl)methyl]-N-(3,5-dimethoxyphenyl)acetamide]: 10 to 100 nM. Turning to `COc1cc(OC)cc(N(Cc2ccc(F)cc2C(F)(F)F)C(=O)CCl)c1` [Compound A27, 2-chloro-N-(3,5-dimethoxyphenyl)-N-[[4-fluoro-2-(trifluoro-methyl)phenyl]methyl]acetamide], the IC50 lay within 10 to 100 nM. The same measure for `COc1cc(OC)cc(N(Cc2cc(C#N)ccc2F)C(=O)CCl)c1` [Compound A28, 2-chloro-N-[(5-cyano-2-fluoro-phenyl)methyl]-N-(3,5-dimethoxyphenyl)acetamide]: 10 to 100 nM. As for `COc1cc(N(Cc2ccc(F)cc2)C(=O)CCl)ccc1C` [Compound A29, 2-chloro-N-[(4-fluorophenyl)methyl]-N-(3-methoxy-4-methyl-phenyl)acetamide], the concentration for half-maximal inhibition (IC50) was 10 to 100 nM.

Regarding `COc1cc(OC)cc(N(Cc2c(C)cc(F)cc2C)C(=O)CCl)c1` [Compound A30, 2-chloro-N-(3,5-dimethoxyphenyl)-N-[(4-fluoro-2,6-dimethyl-phenyl)methyl]acetamide], the IC50 is no more than 10 nM. The same measure for `COc1cc(OC)cc(N(Cc2cccc(C(F)(F)F)c2F)C(=O)CCl)c1` [Compound A31, 2-chloro-N-(3,5-dimethoxyphenyl)-N-[[2-fluoro-3-(trifluoro-methyl)phenyl]methyl]acetamide]: 10 to 100 nM; for `COc1cccc(F)c1N(Cc1ccc(F)cc1)C(=O)CCl` [Compound A32, 2-chloro-N-(2-fluoro-6-methoxy-phenyl)-N-[(4-fluorophenyl)methyl]acetamide]: 1000 to 10000 nM; for `COc1cc(OC)cc(N(Cc2ccc(F)c(OC)c2)C(=O)CCl)c1` [Compound A33, 2-chloro-N-(3,5-dimethoxyphenyl)-N-[(4-fluoro-3-methoxy-phenyl)methyl]acetamide]: no more than 10 nM. In turn, `O=C(CCl)N(Cc1ccc(F)cc1)c1cc(O)cc(Cl)c1` [Compound A34, 2-chloro-N-(3-chloro-5-hydroxy-phenyl)-N-[(4-fluorophenyl)methyl]acetamide] came in with an IC50 of 100 to 1000 nM. With `COc1cccc(N(Cc2ccc(F)cc2)C(=O)CCl)c1Cl` [Compound A35, 2-chloro-N-(2-chloro-3-methoxy-phenyl)-N-[(4-fluorophenyl)methyl]acetamide], the concentration for half-maximal inhibition (IC50) is 100 to 1000 nM. Turning to `COc1ccc(N(Cc2ccc(F)cc2)C(=O)CCl)c(C#N)c1` [Compound A36, 2-chloro-N-(2-cyano-4-methoxy-phenyl)-N-[(4-fluorophenyl)methyl]acetamide], the 50% inhibitory concentration (IC50) is 1000 to 10000 nM. The same measure for `COc1ccc(Cl)c(N(Cc2ccc(F)cc2)C(=O)CCl)c1` [Compound A37, 2-chloro-N-(2-chloro-5-methoxy-phenyl)-N-[(4-fluorophenyl)methyl]acetamide]: 100 to 1000 nM; for `COc1cc(OC)cc(N(Cc2ccc(Br)c(F)c2F)C(=O)CCl)c1` [Compound A38, N-[(4-bromo-2,3-difluoro-phenyl)methyl]-2-chloro-N-(3,5-dimethoxyphenyl)acetamide]: no more than 10 nM; for `O=C(CCl)N(Cc1ccc(F)cc1)c1cnc2[nH]nc(Br)c2c1` [Compound A39, N-(3-bromo-1H-pyrazolo[3,4-b]pyridin-5-yl)-2-chloro-N-[(4-fluorophenyl)methyl]acetamide]: 1000 to 10000 nM. The same measure for `COc1c(C)cc(N(Cc2ccc(F)cc2)C(=O)CCl)cc1C` [Compound A40, 2-chloro-N-[(4-fluorophenyl)methyl]-N-(4-methoxy-3,5-dimethyl-phenyl)acetamide]: 10 to 100 nM.
